Laboratory results reported in patent US20040242700A1 (priority 2001, published 2004).
Like-named read-outs stand apart in the source and are kept apart here.

Columns and labels:
trypsin-type protease [1] = system: trypsin-type protease; design: species or system mice; conditions: mouse, in vivo, ip
SP-A [2] = system: SP-A; design: species or system mice; conditions: mouse, in vivo, ip
MPI [3] = format: in vivo, mice
trypsin-type protease [4] = format: in vivo, mice; conditions: 4th day
SP-A [5] = format: in vivo, mice; conditions: administration of ambroxol
MPI [6] = format: in vivo, mice; conditions: administration of ambroxol
[7] = system: mucosal immunoglobulin IgA; format: in vivo, mice
[8] = system: mucosal immunoglobulin IgA; format: in vivo, mice; remark: listed apart in the source
[9] = system: mucosal immunoglobulin IgG; format: in vivo, mice
[10] = system: mucosal immunoglobulin IgG; format: in vivo, mice; remark: listed apart in the source
TNF-α = format: in vivo, mice; conditions: 3rd to 5th day of treatment, not always observed
IL-12 = format: in vivo, mice
IFN-γ = format: in vivo, mice
IL-6 = format: in vivo, mice
[11] = system: inflammatory cytokines such as TNF-α, IL-2, IL-1, IL-4, IL-13 and IFN-γ; conditions: literature reports; cited from earlier work

**Q.** For `Nc1c(Br)cc(Br)cc1CN[C@H]1CC[C@H](O)CC1` [ambroxol, 2-amino-3,5-dibromo-N-[trans-4-hydroxycyclohexyl] benzyl amine], which “day on which the trypsin-type protease level reached the peak value” (trypsin-type protease [1]; 10 mg/kg/day) is on record?
**A.** 5 days

**Q.** What about the “day on which the trypsin-type protease level reached the peak level” value (trypsin-type protease [1]; 30 mg/kg/day) of the same compound?
**A.** 4 days

**Q.** What about the “day on which the SP-A level reached the peak value” (SP-A [2]; 10 mg/kg/day) of the same compound?
**A.** 5 days

**Q.** And the “day on which the SP-A level reached the maximum value” (SP-A [2]; 30 mg/kg/day)?
**A.** 4 days

**Q.** What about the “MPI concentration relative to that induced by the viral infection” value (MPI [3]; […], treatment with ambroxol) of the same compound?
**A.** 1.9 times

**Q.** And the “peak MPI concentration relative to un-infected animals” value (MPI [3]; mouse, in vivo)?
**A.** 8.4 times

**Q.** What about the “day on which the MPI level reached the peak value” (MPI [3]; mouse, in vivo, ip, 10 mg/kg/day) of the same compound?
**A.** 5 days

**Q.** What about the “day on which the MPI level reached the maximum value” (MPI [3]; mouse, in vivo, ip, 30 mg/kg/day) of the same compound?
**A.** 4 days

**Q.** And the “peak trypsin-type protease level relative to un-infected animals” value (trypsin-type protease [4]; 10 mg/kg/day i.p.)?
**A.** up to 2.2 times

**Q.** What about the “peak trypsin-type protease level relative to un-infected animals” value (trypsin-type protease [4]; 30 mg/kg/day i.p.) of the same compound?
**A.** ≤ 2.4 times

**Q.** And the “secretion of SP-A” value (SP-A [5])?
**A.** lightly promoted

**Q.** What about the “secretion of MPI” value (MPI [6]) of the same compound?
**A.** lightly promoted

**Q.** What about the “IgA concentration relative to the group free of treatment” value ([7]; 10 mg/kg/day, 7th day) of the same compound?
**A.** about 10 times

**Q.** What about the “IgA concentration relative to the group free of treatment” value ([7]; 30 mg/kg/day, 5th day) of the same compound?
**A.** about 10 times

**Q.** What about the “IgA concentration relative to the basic concentration” value ([7]; dose not stated) of the same compound?
**A.** about 10 times

**Q.** What about the “IgA level relative to the basic concentration of IgA” value ([8]; 10 mg/kg/day, 7th day) of the same compound?
**A.** about 600 times

**Q.** And the “IgA level relative to the basic concentration of IgA” value ([8]; 30 mg/kg/day, 5th day)?
**A.** ~700 times

**Q.** And the “IgA concentration relative to the maximum concentration induced through the viral infection” value ([8]; treatment with ambroxol)?
**A.** 1.5-1.8 times

**Q.** What about the “IgG concentration relative to the group free of treatment” value ([9]; 10 mg/kg/day, 7th day) of the same compound?
**A.** about 1.2 time

**Q.** What about the “IgG concentration relative to the group free of treatment” value ([9]; 30 mg/kg/day, 6th day) of the same compound?
**A.** about 1.2 time

**Q.** What about the “IgG concentration relative to the basic concentration” value ([9]; dose not stated) of the same compound?
**A.** 1.2 times

**Q.** What about the “IgG concentration relative to the basic concentration of IgG” value ([10]; 10 mg/kg/day, 6th day) of the same compound?
**A.** about 16 times

**Q.** What about the “IgG concentration relative to the basic concentration of IgG” value ([10]; 30 mg/kg/day, 5th day) of the same compound?
**A.** ~15 times

**Q.** What about the “IgG concentration relative to the maximum concentration induced through the viral infection” value ([10]; treatment with ambroxol) of the same compound?
**A.** ~1.45 times

**Q.** And the “effect on TNF-α secretion in BALF” value (TNF-α)?
**A.** secretion-inhibitory effects

**Q.** What about the IL-12 (IL-12; 10 mg/kg/day i.p., day 1) of the same compound?
**A.** 27.3 ± 7.1 pg/mL

**Q.** What about the IL-12 (IL-12; 10 mg/kg/day i.p., day 2) of the same compound?
**A.** 68.5 ± 12.9 pg/mL

**Q.** And the IL-12 (IL-12; 10 mg/kg/day i.p., day 3)?
**A.** 133.3 ± 17.2 pg/mL

**Q.** What about the IL-12 (IL-12; 10 mg/kg/day i.p., day 4) of the same compound?
**A.** 119.5 ± 15.8 pg/mL

**Q.** What about the IL-12 (IL-12; 10 mg/kg/day i.p., day 5) of the same compound?
**A.** 57.4 ± 16.0 pg/mL

**Q.** And the IL-12 (IL-12; 10 mg/kg/day i.p., day 6)?
**A.** 29.4 ± 6.2 pg/mL

**Q.** What about the IL-12 (IL-12; 10 mg/kg/day i.p., day 7) of the same compound?
**A.** 62.5 ± 27.7 pg/mL

**Q.** And the IL-12 (IL-12; 30 mg/kg/day i.p., day 1)?
**A.** 22.4 ± 4.1 pg/mL

**Q.** What about the IL-12 (IL-12; 30 mg/kg/day i.p., day 2) of the same compound?
**A.** 108.2 ± 33.3 pg/mL

**Q.** And the IL-12 (IL-12; 30 mg/kg/day i.p., day 3)?
**A.** 141.5 ± 15.1 pg/mL

**Q.** What about the IL-12 (IL-12; 30 mg/kg/day i.p., day 4) of the same compound?
**A.** 118.6 ± 11.4 pg/mL

**Q.** And the IL-12 (IL-12; 30 mg/kg/day i.p., day 5)?
**A.** 62.4 ± 13.6 pg/mL

**Q.** What about the IL-12 (IL-12; 30 mg/kg/day i.p., day 6) of the same compound?
**A.** 44.3 ± 29.1 pg/mL

**Q.** And the IL-12 (IL-12; 30 mg/kg/day i.p., day 7)?
**A.** 95.8 ± 52.2 pg/mL

**Q.** And the INF-γ (IFN-γ; 10 mg/kg/day i.p., day 1)?
**A.** 9.4 ± 2.4 pg/mL

**Q.** What about the INF-γ (IFN-γ; 10 mg/kg/day i.p., day 2) of the same compound?
**A.** 9.5 ± 1.8 pg/mL

**Q.** And the INF-γ (IFN-γ; 10 mg/kg/day i.p., day 3)?
**A.** 2.8 ± 0.9 pg/mL

**Q.** What about the IFN-γ (IFN-γ; 10 mg/kg/day i.p., day 4) of the same compound?
**A.** 5.3 ± 2.8 pg/mL

**Q.** And the IFN-γ (IFN-γ; 10 mg/kg/day i.p., day 5)?
**A.** 14.7 ± 5.3 pg/mL

**Q.** What about the IFN-γ (IFN-γ; 10 mg/kg/day i.p., day 6) of the same compound?
**A.** 39.4 ± 18.6 pg/mL

**Q.** What about the IFN-γ (IFN-γ; 10 mg/kg/day i.p., day 7) of the same compound?
**A.** 4.0 ± 1.6 pg/mL

**Q.** What about the INF-γ (IFN-γ; 30 mg/kg/day i.p., day 1) of the same compound?
**A.** 10.4 ± 2.7 pg/mL

**Q.** And the INF-γ (IFN-γ; 30 mg/kg/day i.p., day 2)?
**A.** 9.8 ± 2.4 pg/mL

**Q.** What about the INF-γ (IFN-γ; 30 mg/kg/day i.p., day 3) of the same compound?
**A.** 4.0 ± 1.1 pg/mL

**Q.** What about the IFN-γ (IFN-γ; 30 mg/kg/day i.p., day 4) of the same compound?
**A.** 10.2 ± 5.5 pg/mL

**Q.** What about the IFN-γ (IFN-γ; 30 mg/kg/day i.p., day 5) of the same compound?
**A.** 32.8 ± 11.1 pg/mL

**Q.** And the IFN-γ (IFN-γ; 30 mg/kg/day i.p., day 6)?
**A.** 61.8 ± 21.7 pg/mL

**Q.** And the IFN-γ (IFN-γ; 30 mg/kg/day i.p., day 7)?
**A.** 5.1 ± 1.8 pg/mL

**Q.** What about the “effect on INF-γ secretion in BALF” value (IFN-γ; 1st day of treatment, not always observed) of the same compound?
**A.** secretion-inhibitory effects

**Q.** And the IL-6 (IL-6; 10 mg/kg/day i.p., day 1)?
**A.** 174.8 ± 35.0 pg/mL

**Q.** What about the IL-6 (IL-6; 10 mg/kg/day i.p., day 2) of the same compound?
**A.** 191.8 ± 51.9 pg/mL

**Q.** And the IL-6 (IL-6; 10 mg/kg/day i.p., day 3)?
**A.** 280.2 ± 54.2 pg/mL

**Q.** And the IL-6 (IL-6; 10 mg/kg/day i.p., day 4)?
**A.** 339.2 ± 57.1 pg/mL

**Q.** What about the IL-6 (IL-6; 10 mg/kg/day i.p., day 5) of the same compound?
**A.** 540.9 ± 84.2 pg/mL

**Q.** What about the IL-6 (IL-6; 10 mg/kg/day i.p., day 6) of the same compound?
**A.** 503.23 ± 61.4 pg/mL

**Q.** What about the IL-6 (IL-6; 10 mg/kg/day i.p., day 7) of the same compound?
**A.** 73.7 ± 14.7 pg/mL

**Q.** What about the IL-6 (IL-6; 30 mg/kg/day i.p., day 1) of the same compound?
**A.** 170.8 ± 28.9 pg/mL

**Q.** What about the IL-6 (IL-6; 30 mg/kg/day i.p., day 2) of the same compound?
**A.** 186.7 ± 19.6 pg/mL

**Q.** And the IL-6 (IL-6; 30 mg/kg/day i.p., day 3)?
**A.** 326.2 ± 44.9 pg/mL

**Q.** And the IL-6 (IL-6; 30 mg/kg/day i.p., day 4)?
**A.** 433.5 ± 101.9 pg/mL

**Q.** And the IL-6 (IL-6; 30 mg/kg/day i.p., day 5)?
**A.** 478.2 ± 86.4 pg/mL

**Q.** What about the IL-6 (IL-6; 30 mg/kg/day i.p., day 6) of the same compound?
**A.** 817.0 ± 168.0 pg/mL

**Q.** What about the IL-6 (IL-6; 30 mg/kg/day i.p., day 7) of the same compound?
**A.** 80.0 ± 17.5 pg/mL

**Q.** And the “effect on the level of IL-6 in BALF” value (IL-6; 4th and 6th days of treatment)?
**A.** increased

**Q.** And the “in vitro release of inflammatory cytokines such as TNF-α, IL-2, IL-1, IL-4, IL-13 and IFN-γ” value [11]?
**A.** inhibits
